Laboratory results as given in PubChem BioAssay (NCI).
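Cultured in 96-well plates, cells were exposed to test compound for 48 hours across five concentrations. TGI: total growth inhibition.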

Assays:
Assay in all cases: DTP human tumour cell line panel, 48 h
786-0 renal = system: 786-0 renal
A549 NSCLC = system: A549 NSCLC
ACHN renal = system: ACHN renal
BT-549 breast = system: BT-549 breast
CAKI-1 renal = system: CAKI-1 renal
CCRF-CEM leukemia = system: CCRF-CEM leukemia
COLO 205 colon = system: COLO 205 colon
DU-145 prostate = system: DU-145 prostate
EKVX NSCLC = system: EKVX NSCLC
HCC-2998 colon = system: HCC-2998 colon
HCT-116 colon = system: HCT-116 colon
HCT-15 colon = system: HCT-15 colon
HL-60(TB) leukemia = system: HL-60(TB) leukemia
HOP-62 NSCLC = system: HOP-62 NSCLC
HOP-92 NSCLC = system: HOP-92 NSCLC
HS 578T breast = system: HS 578T breast
HT29 colon = system: HT29 colon
IGROV1 ovarian = system: IGROV1 ovarian
KM12 colon = system: KM12 colon
LOX IMVI melanoma = system: LOX IMVI melanoma
M14 melanoma = system: M14 melanoma
MCF7 breast = system: MCF7 breast
MDA-MB-231 breast = system: MDA-MB-231 breast
MDA-MB-435 = system: MDA-MB-435
MDA-N = system: MDA-N
MOLT-4 leukemia = system: MOLT-4 leukemia
NCI-H23 lung = system: NCI-H23 lung
NCI-H460 lung = system: NCI-H460 lung
NCI-H522 lung = system: NCI-H522 lung
NCI/ADR-RES ovarian = system: NCI/ADR-RES ovarian
OVCAR-3 ovarian = system: OVCAR-3 ovarian
OVCAR-4 ovarian = system: OVCAR-4 ovarian
OVCAR-5 ovarian = system: OVCAR-5 ovarian
OVCAR-8 ovarian = system: OVCAR-8 ovarian
PC-3 prostate = system: PC-3 prostate
RPMI-8226 leukemia = system: RPMI-8226 leukemia
SF-268 CNS = system: SF-268 CNS
SF-295 CNS = system: SF-295 CNS
SF-539 CNS = system: SF-539 CNS
SK-MEL-2 melanoma = system: SK-MEL-2 melanoma
SK-MEL-28 melanoma = system: SK-MEL-28 melanoma
SK-MEL-5 melanoma = system: SK-MEL-5 melanoma
SN12C renal = system: SN12C renal
SNB-19 CNS = system: SNB-19 CNS
SNB-75 CNS = system: SNB-75 CNS
SR leukemia = system: SR leukemia
SW-620 colon = system: SW-620 colon
T-47D breast = system: T-47D breast
TK-10 renal = system: TK-10 renal
U251 CNS = system: U251 CNS
UACC-257 melanoma = system: UACC-257 melanoma
UACC-62 melanoma = system: UACC-62 melanoma
UO-31 renal = system: UO-31 renal
A498 renal = system: A498 renal
K-562 leukemia = system: K-562 leukemia
MALME-3M melanoma = system: MALME-3M melanoma
NCI-H226 lung = system: NCI-H226 lung
SK-OV-3 ovarian = system: SK-OV-3 ovarian

COCC[N+](CCNC(=O)c1cccc2c(N)c3cccc(C)c3nc12)(CCOC)Cc1ccc([N+](=O)[O-])cc1
TGI (786-0 renal): > 100 µM
TGI (A549 NSCLC): > 100 µM
TGI (ACHN renal): > 100 µM
TGI (BT-549 breast): 64.5 µM
TGI (CAKI-1 renal): > 100 µM
TGI (CCRF-CEM leukemia): 58.1 µM
TGI (COLO 205 colon): 43 µM
TGI (DU-145 prostate): 59.1 µM
TGI (EKVX NSCLC): 67.3 µM
TGI (HCC-2998 colon): 27.2 µM
TGI (HCT-116 colon): 58 µM
TGI (HCT-15 colon): > 100 µM
TGI (HL-60(TB) leukemia): 40.1 µM
TGI (HOP-62 NSCLC): > 100 µM
TGI (HOP-92 NSCLC): 94.6 µM
TGI (HS 578T breast): 39.3 µM
TGI (HT29 colon): 76.5 µM
TGI (IGROV1 ovarian): 33.5 µM
TGI (KM12 colon): 30.9 µM
TGI (LOX IMVI melanoma): 81.5 µM
TGI (M14 melanoma): > 100 µM
TGI (MCF7 breast): 89.8 µM
TGI (MDA-MB-231 breast): 58.8 µM
TGI (MDA-MB-435): 83.4 µM
TGI (MDA-N): > 100 µM
TGI (MOLT-4 leukemia): 39.2 µM
TGI (NCI-H23 lung): > 100 µM
TGI (NCI-H460 lung): 29.5 µM
TGI (NCI-H522 lung): 36.3 µM
TGI (NCI/ADR-RES ovarian): > 100 µM
TGI (OVCAR-3 ovarian): 99.1 µM
TGI (OVCAR-4 ovarian): > 100 µM
TGI (OVCAR-5 ovarian): > 100 µM
TGI (OVCAR-8 ovarian): > 100 µM
TGI (PC-3 prostate): > 100 µM
TGI (RPMI-8226 leukemia): 27.2 µM
TGI (SF-268 CNS): 87.5 µM
TGI (SF-295 CNS): > 100 µM
TGI (SF-539 CNS): 56.7 µM
TGI (SK-MEL-2 melanoma): > 100 µM
TGI (SK-MEL-28 melanoma): 52 µM
TGI (SK-MEL-5 melanoma): 22.9 µM
TGI (SN12C renal): > 100 µM
TGI (SNB-19 CNS): > 100 µM
TGI (SNB-75 CNS): 61.7 µM
TGI (SR leukemia): 35.3 µM
TGI (SW-620 colon): > 100 µM
TGI (T-47D breast): 37.3 µM
TGI (TK-10 renal): > 100 µM
TGI (U251 CNS): > 100 µM
TGI (UACC-257 melanoma): 46 µM
TGI (UACC-62 melanoma): 42.5 µM
TGI (UO-31 renal): > 100 µM

COc1cc(C2SCC(=O)N2c2ccc(-c3ccc(-n4c(-c5ccccc5)nc5ccccc5c4=O)cc3)cc2)ccc1O (stereo not given)
TGI (786-0 renal): > 100 µM
TGI (A498 renal): > 100 µM
TGI (A549 NSCLC): > 100 µM
TGI (ACHN renal): > 100 µM
TGI (BT-549 breast): > 100 µM
TGI (CAKI-1 renal): > 100 µM
TGI (CCRF-CEM leukemia): > 100 µM
TGI (COLO 205 colon): > 100 µM
TGI (DU-145 prostate): > 100 µM
TGI (EKVX NSCLC): > 100 µM
TGI (HCC-2998 colon): > 100 µM
TGI (HCT-116 colon): > 100 µM
TGI (HCT-15 colon): > 100 µM
TGI (HL-60(TB) leukemia): > 100 µM
TGI (HOP-62 NSCLC): > 100 µM
TGI (HOP-92 NSCLC): 74.1 µM
TGI (HS 578T breast): > 100 µM
TGI (HT29 colon): > 100 µM
TGI (IGROV1 ovarian): > 100 µM
TGI (K-562 leukemia): > 100 µM
TGI (KM12 colon): > 100 µM
TGI (LOX IMVI melanoma): > 100 µM
TGI (M14 melanoma): > 100 µM
TGI (MALME-3M melanoma): > 100 µM
TGI (MCF7 breast): > 100 µM
TGI (MDA-MB-231 breast): > 100 µM
TGI (MDA-MB-435): > 100 µM
TGI (MDA-N): > 100 µM
TGI (MOLT-4 leukemia): > 100 µM
TGI (NCI-H226 lung): > 100 µM
TGI (NCI-H23 lung): > 100 µM
TGI (NCI-H460 lung): > 100 µM
TGI (NCI-H522 lung): > 100 µM
TGI (NCI/ADR-RES ovarian): > 100 µM
TGI (OVCAR-3 ovarian): > 100 µM
TGI (OVCAR-4 ovarian): > 100 µM
TGI (OVCAR-5 ovarian): > 100 µM
TGI (OVCAR-8 ovarian): > 100 µM
TGI (PC-3 prostate): > 100 µM
TGI (RPMI-8226 leukemia): > 100 µM
TGI (SF-268 CNS): > 100 µM
TGI (SF-295 CNS): > 100 µM
TGI (SF-539 CNS): > 100 µM
TGI (SK-MEL-2 melanoma): > 100 µM
TGI (SK-MEL-28 melanoma): > 100 µM
TGI (SK-MEL-5 melanoma): > 100 µM
TGI (SK-OV-3 ovarian): > 100 µM
TGI (SN12C renal): > 100 µM
TGI (SNB-19 CNS): > 100 µM
TGI (SNB-75 CNS): 49.8 µM
TGI (SW-620 colon): > 100 µM
TGI (T-47D breast): 71.5 µM
TGI (TK-10 renal): > 100 µM
TGI (U251 CNS): > 100 µM
TGI (UACC-257 melanoma): > 100 µM
TGI (UACC-62 melanoma): > 100 µM
TGI (UO-31 renal): > 100 µM
